Results taken from paper PMC8028158 (ACS Omega, 2021).
Entries after “also recorded” stand apart in the source; their conditions may differ.

How the values were obtained:
mouse TRPC7 = molecular target: T1, mouse TRPC7 (Mus musculus, UniProt Q9WVC5); assay: Fluorescence Ca2+ assay in TRPC7-HEK293 cells; type: cell-based; details: induced by 10 μM HDM
T1 sequence (Q9WVC5 1-862): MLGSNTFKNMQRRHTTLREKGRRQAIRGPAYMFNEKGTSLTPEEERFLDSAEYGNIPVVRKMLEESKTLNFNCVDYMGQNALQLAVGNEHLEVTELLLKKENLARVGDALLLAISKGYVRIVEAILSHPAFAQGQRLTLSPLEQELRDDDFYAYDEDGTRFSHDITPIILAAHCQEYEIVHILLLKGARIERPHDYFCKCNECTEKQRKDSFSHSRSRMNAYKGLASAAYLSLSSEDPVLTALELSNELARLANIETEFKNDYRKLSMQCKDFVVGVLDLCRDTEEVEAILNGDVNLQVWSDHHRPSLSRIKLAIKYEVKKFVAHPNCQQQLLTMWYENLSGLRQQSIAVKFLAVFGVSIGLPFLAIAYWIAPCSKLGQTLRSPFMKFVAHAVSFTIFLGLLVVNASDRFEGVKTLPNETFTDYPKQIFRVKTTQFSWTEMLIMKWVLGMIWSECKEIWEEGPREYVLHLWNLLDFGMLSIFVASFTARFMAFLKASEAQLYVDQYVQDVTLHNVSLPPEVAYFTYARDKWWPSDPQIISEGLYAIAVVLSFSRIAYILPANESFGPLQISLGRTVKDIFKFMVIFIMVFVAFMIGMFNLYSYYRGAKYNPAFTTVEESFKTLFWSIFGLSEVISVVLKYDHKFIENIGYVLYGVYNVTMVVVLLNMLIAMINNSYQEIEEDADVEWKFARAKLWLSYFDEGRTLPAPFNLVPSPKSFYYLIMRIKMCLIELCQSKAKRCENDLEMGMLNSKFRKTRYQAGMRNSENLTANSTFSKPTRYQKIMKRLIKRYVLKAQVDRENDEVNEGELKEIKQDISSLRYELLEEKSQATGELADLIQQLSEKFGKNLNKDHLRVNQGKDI

TRPM8 = TRPM8 (Homo sapiens, UniProt Q7Z2W7); assay: Selectivity Ca2+ assay in TRPM8-expressing HEK293 cells; type: cell-based; details: 1s 50 μM; Fluo-8
TRPM8, sequence (Q7Z2W7 whole entry, species assumed): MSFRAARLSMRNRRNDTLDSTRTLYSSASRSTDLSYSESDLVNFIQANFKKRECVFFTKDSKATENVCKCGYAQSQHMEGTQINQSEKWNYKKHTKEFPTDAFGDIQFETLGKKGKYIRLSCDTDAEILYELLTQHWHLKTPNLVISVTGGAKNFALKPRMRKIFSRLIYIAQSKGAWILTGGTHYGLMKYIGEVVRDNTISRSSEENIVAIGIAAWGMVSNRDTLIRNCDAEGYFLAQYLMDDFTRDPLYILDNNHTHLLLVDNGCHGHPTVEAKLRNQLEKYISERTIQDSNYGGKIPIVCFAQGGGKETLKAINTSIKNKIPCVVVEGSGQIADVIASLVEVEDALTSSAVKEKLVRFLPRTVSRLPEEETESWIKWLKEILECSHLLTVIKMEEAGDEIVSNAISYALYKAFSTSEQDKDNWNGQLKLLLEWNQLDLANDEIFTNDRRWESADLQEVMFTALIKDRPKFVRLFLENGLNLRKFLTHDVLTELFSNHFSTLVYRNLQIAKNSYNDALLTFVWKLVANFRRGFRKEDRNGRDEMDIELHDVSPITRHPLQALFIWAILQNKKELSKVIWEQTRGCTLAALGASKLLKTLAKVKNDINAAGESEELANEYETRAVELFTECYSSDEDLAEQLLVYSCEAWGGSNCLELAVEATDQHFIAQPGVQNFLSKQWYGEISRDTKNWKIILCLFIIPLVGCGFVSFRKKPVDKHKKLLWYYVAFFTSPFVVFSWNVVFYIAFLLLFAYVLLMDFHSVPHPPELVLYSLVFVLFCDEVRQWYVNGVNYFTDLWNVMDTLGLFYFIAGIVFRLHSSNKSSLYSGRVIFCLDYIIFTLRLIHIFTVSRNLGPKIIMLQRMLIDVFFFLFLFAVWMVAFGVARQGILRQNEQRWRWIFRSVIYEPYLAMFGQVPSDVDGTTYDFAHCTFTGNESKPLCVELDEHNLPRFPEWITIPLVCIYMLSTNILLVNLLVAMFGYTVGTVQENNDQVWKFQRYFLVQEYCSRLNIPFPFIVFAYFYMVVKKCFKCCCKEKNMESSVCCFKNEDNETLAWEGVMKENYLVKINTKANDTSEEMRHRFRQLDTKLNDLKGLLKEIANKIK

- Effect on agonist-induced Ca2+ response, TRPM8 (TRPM8): did not significantly affect
SMILES: COc1cccc2sc(N(CCN(C)C)C(=O)c3ccc4c(c3)CCCC4)nc12 [Compound 1s, N-(2-(dimethylamino)ethyl)-N-(4-methoxybenzo[d]thiazol-2-yl)-5,6,7,8-tetrahydronaphthalene-2-carboxamide]
- Effect on Ca2+ response in TRPC7-HEK293 cells (mouse TRPC7): almost did not cause a discernible Ca^2+ response; also recorded: little or no effect; also recorded: no effect
